# Data reported in US20240216401A1, “COMBINATION THERAPY BY USING AKR1C3-ACTIVATED COMPOUND WITH IMMUNE CHECKPOINT INHIBITOR” (OBI Pharma, Inc., priority 2021, published 2024).
# Tested on: HepG2 tumor
# Assay: Example 2: tumor volume, tumor weight and TGI in HepG2 tumor bearing humanized mice
# Assay type: in vivo, Mus musculus
# Conditions: Example 2, D30
# Procedure: 1. Species: Mus musculus • Strain: Advanced immunodeficiency mouse. • (NOD.CgPrkdc^scid Il2rg) • Source: Trineo Biotechnology Co., LTD.
# Each group contains six mice. The human hepatocellular carcinoma cell line HepG2 were subcutaneously inoculated to the advanced immune-deficiency mice. Total of 42 mice were included in this study.
# 2.2. […] The subcutaneous injection volume was […].
# 3.1. […] The injection was performed using insulin syringe with the dosage of 0.3 mg/kg or 1 mg/kg and the injection volume was 5 mL/kg. […] The reference item was administered for G1. The procedure followed the standards of sample administration. The starting day of test item administration was denoted as the first experimental day (DO).
# 3.2. […] The injection was performed using insulin syringe with the dosage of 20 mg/kg and injection volume of 10 mL/kg. […] The procedure followed the standards of sample administration.
# The measurement was performed from the next day of the inoculation. The tumor volumes were measured and recorded twice a week (Mon., Thur.). Tumor volume was calculated by ellipsoid equation according to the records ((major axis×minor axis×minor axis)×(π/6)).
# Tumor volumes were used to calculate tumor growth inhibition (TGI) rates according to the following formula: TGI (%)=[1−(Ti−T0)/(Ci−C0)]×100, where Ti and Ci indicate the mean tumor volume in the treatment groups and vehicle group at the end of the experiment (Day 30). Whereas, T0 and C0 indicate the mean tumor volumes in the treatment group and vehicle group at the beginning of the experiment (Day 0).
# Mice were sacrificed by CO2 euthanasia at the end of the study duration, and the connective tissue around tumor was resected. The tumor samples were then weighed and cut equally into three sections if the tumor weight over 400 mg. The tumor tissue was prepared for the isolation of tumor-infiltrating lymphocytes (TILs). The rest of one section was fixed in 10% formaldehyde and embedded in paraffin; the other was stored at a temperature below −70° C.
substance,measurement,setting,value
"anti-hPD-1: Anti-Human PD-1 antibody, Pembrolizumab, Merck & Co., Inc.",mean tumor volume,"mean±SEM, anti-hPD-1 20 mg/kg IP alone (G4)",983.84±266.44 mm^3
same,mean tumor volume compared with vehicle (in words),"vs vehicle (G1), OBI-3424 high-dose 1 mg/kg (G3), anti-hPD-1 20 mg/kg (G4), combinations G5-G7",No statistically significant difference
